Converted amounts (≈) assume the structure as drawn. Like-named read-outs stand apart in the source and are kept apart here.
Tests used:
[1] = tested on: M. bovis BCG membrane electric potential; assay type: cell-based
[2] = tested on: dopamine transporter; set-up: method as in PMID 28274674; conditions: human embryonic kidney 293 cells; 20 nM [3H] dopamine over 5 min at 37 °C; read-out: IC50 against the dopamine transporter; cited from earlier work
[3] = tested on: M. smegmatis; assay: Ethidium bromide efflux assay in M. smegmatis; assay type: cell-based; conditions: for % Change in fluorescence (efflux) / Rate of efflux (ethidium bromide): analogues 100 µM, verapamil 102 µM, with glucose; for % Change in fluorescence (efflux): end of 60 min assay; for Rate of efflux (ethidium bromide): rate from 0–9 minutes
[4] = tested on: M. smegmatis; assay: Ethidium bromide accumulation assay in M. smegmatis; assay type: cell-based; conditions: analogues 100 µM, verapamil 102 µM, with glucose; for % Change in fluorescence (accumulation): end of 60 min assay; for Rate of accumulation (ethidium bromide): rate from 5–14 minutes
[5] = molecular target: T1, human dopamine transporter (Homo sapiens, UniProt Q01959); assay: cell-based; assay type: cell-based; conditions: for IC50: CHO cells transfected with human dopamine transporter, 0.3 µM [3H] dopamine, 90 min, read-out: IC50 against dopamine transporter; for IC50 / inhibition at 0.1 µM: N = 3; for inhibition at 0.1 µM: CHO, dopamine transporter uptake, 100 nM
T1 construct: host or cells: Chinese hamster ovary (CHO) cells
T1 sequence (Q01959 whole entry): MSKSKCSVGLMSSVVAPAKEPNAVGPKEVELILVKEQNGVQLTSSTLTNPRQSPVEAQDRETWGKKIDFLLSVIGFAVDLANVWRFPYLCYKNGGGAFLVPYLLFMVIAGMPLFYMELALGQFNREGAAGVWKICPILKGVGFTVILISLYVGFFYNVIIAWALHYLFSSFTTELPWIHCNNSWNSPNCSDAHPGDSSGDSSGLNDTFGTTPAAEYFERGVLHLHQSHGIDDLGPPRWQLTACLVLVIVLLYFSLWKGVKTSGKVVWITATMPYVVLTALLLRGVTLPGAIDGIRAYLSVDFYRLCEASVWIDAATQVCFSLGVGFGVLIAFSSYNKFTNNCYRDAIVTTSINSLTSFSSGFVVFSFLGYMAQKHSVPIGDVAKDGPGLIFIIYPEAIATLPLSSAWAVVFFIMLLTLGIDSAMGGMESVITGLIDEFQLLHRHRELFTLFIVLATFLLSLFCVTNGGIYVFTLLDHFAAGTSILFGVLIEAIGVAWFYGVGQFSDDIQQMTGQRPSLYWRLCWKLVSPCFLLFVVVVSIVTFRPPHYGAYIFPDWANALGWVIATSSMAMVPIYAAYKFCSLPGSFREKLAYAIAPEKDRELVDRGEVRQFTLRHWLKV
Method: This assay was performed by Eurofins Discovery and is based on a reported method. […] Following incubation, the amount of [^3H] dopamine was quantified using a scintillation counter (Topcount, Packard). The results were expressed as a percentage inhibition relative to the control uptake of [^3H] dopamine.
In this assay, five concentrations of each analogue were tested, in triplicate, ranging from 10 µM to 100 nM (Supplementary Fig. S2).
26 Supplementary Figure S2: Dopamine transporter uptake assays monitoring
The uptake of [3H] dopamine into Chinese
28 hamster ovary cells, transfected with the human dopamine transporter, was used to […]

[6] = tested on: dopamine transporter; assay type: cell-based; conditions: based on IC50 from Paudel et al.
[7] = tested on: M. smegmatis; assay: MIC determination (resazurin) against M. smegmatis; assay type: cell-based, M. smegmatis mc^2155; conditions: Mycolicibacterium smegmatis; lowest concentration reducing growth to 1% or less; 21 h + 3 h resazurin; N = 3
[8] = tested on: E. faecium E745; assay: microbe, parasite or virus in culture; assay type: cell-based; conditions: Enterococcus faecium, E745, 24 h, read-out: MIC99 E. faecium E745
[9] = tested on: M. bovis BCG; assay type: cell-based; conditions: analogues 100 µM, verapamil 102 µM, with glucose; for % Change in fluorescence (accumulation): end of 60 min assay; for Rate of accumulation (ethidium bromide): rate from 5–14 minutes
[10] = tested on: M. bovis BCG; assay type: cell-based; conditions: analogues 100 µM, verapamil 102 µM, with glucose; for % Change in fluorescence (efflux): end of 60 min assay; for Rate of efflux (ethidium bromide): rate from 0–9 minutes
[11] = M. bovis BCG, test compounds 100 µM, CCCP 25 µM, Fig. 3

SMILES | impact on membrane electric potential (in words) [1] | IC50 [2] | % Change in fluorescence (efflux) [3] | Rate of efflux (ethidium bromide) [3] | % Change in fluorescence (accumulation) [4] | Rate of accumulation (ethidium bromide) [4] | IC50 [5] | inhibition at 0.1 µM [5] | difference between MIC99 against M. bovis BCG and IC50 against the dopamine transporter ([5]; based on data of this study) | difference between MIC99 against M. bovis BCG and IC50 against the dopamine transporter [6] | MIC99 [7] | MIC99 [8] | % Change in fluorescence (accumulation) [9] | Rate of accumulation (ethidium bromide) [9] | % Change in fluorescence (efflux) [10] | Rate of efflux (ethidium bromide) [10] | impact on membrane electric potential (in words) [1, 11] | effect on ethidium bromide efflux (in words) ([3]; 100 µM)
N#CC(C#N)=NNc1cccc(Cl)c1 [CCCP, Carbonyl cyanide m-chlorophenyl hydrazone, reference compound] | greatest loss of electric potential | – | – | – | – | – | – | – | – | – | – | – | – | – | – | – | – | –
Fc1ccc(C(OCCN2CCC(Cc3ccccc3)CC2)c2ccc(F)cc2)cc1 [Compound 3] | – | 6.8 µM | –11 ± 0.1% | –1400 ± 200 RFUs/min | 286 ± 1% | 3000 ± 100 RFUs/min | 0.14 µM | 35.8% | 179 × | 3.7 × | 50 µM | 25 µM (≈ 10.5 µg/mL) | 67 ± 1% | 480 ± 300 RFUs/min | –18 ± 6% | –1300 ± 200 RFUs/min | greater impact than vanoxerine | –
Fc1ccc(C(OCCN2CCNCC2)c2ccc(F)cc2)cc1 [Compound 4] | – | – | –57 ± 0.1% | –4500 ± 400 RFUs/min | 57 ± 6% | 2700 ± 310 RFUs/min | – | – | – | – | > 100 µM | > 100 µM | 46 ± 2% | 800 ± 2000 RFUs/min | –16 ± 0.4% | –1000 ± 800 RFUs/min | – | –
Fc1ccc(CN2CCN(CCOC(c3ccc(F)cc3)c3ccc(F)cc3)CC2)cc1 [Compound 5] | – | – | –25 ± 0.2% | –1700 ± 200 RFUs/min | 175 ± 4% | 1300 ± 20 RFUs/min | – | – | – | – | > 100 µM | > 100 µM | 39 ± 1% | 130 ± 130 RFUs/min | –20 ± 0.02% | –1500 ± 50 RFUs/min | – | –
Oc1ccc(CN2CCN(CCOC(c3ccc(F)cc3)c3ccc(F)cc3)CC2)cc1 [Compound 6] | – | – | –49 ± 0.3% | –2500 ± 200 RFUs/min | 75 ± 2% | 1100 ± 40 RFUs/min | – | – | – | – | > 100 µM | > 100 µM | 36 ± 3% | 140 ± 480 RFUs/min | –21 ± 0.2% | –1400 ± 330 RFUs/min | – | –
Fc1ccc(C(OCCN2CCN(CC3CCCCC3)CC2)c2ccc(F)cc2)cc1 [Compound 7] | – | – | –43 ± 0.2% | –2200 ± 60 RFUs/min | 94 ± 2% | 1000 ± 16 RFUs/min | – | – | – | – | 100 µM | 100 µM (≈ 42.9 µg/mL) | 32 ± 1% | 120 ± 90 RFUs/min | –21 ± 0.1% | –1600 ± 100 RFUs/min | – | –
O=C(c1ccccc1)N1CCN(CCOC(c2ccc(F)cc2)c2ccc(F)cc2)CC1 [Compound 8] | – | – | –63 ± 0.1% | –4300 ± 400 RFUs/min | 37 ± 2% | 600 ± 30 RFUs/min | – | – | – | – | > 100 µM | > 100 µM | 26 ± 2% | 120 ± 460 RFUs/min | –26 ± 0.2% | –1799 ± 400 RFUs/min | – | –
OC(CCN1CCN(CCOC(c2ccc(F)cc2)c2ccc(F)cc2)CC1)c1ccccc1 (centres unmarked) [Compound 9] | – | – | –11 ± 0.1% | –1100 ± 110 RFUs/min | 349 ± 1% | 4500 ± 40 RFUs/min | < 0.1 µM | 98.2% | – | – | 100 µM | > 100 µM | 68 ± 1% | 1100 ± 1000 RFUs/min | –16 ± 0.4% | –1200 ± 600 RFUs/min | greater impact than vanoxerine | –
C#CCOC(CCN1CCN(CCOC(c2ccc(F)cc2)c2ccc(F)cc2)CC1)c1ccccc1 (centres unmarked) [Compound 10] | – | – | –13 ± 0.1% | –1200 ± 200 RFUs/min | 323 ± 7% | 4500 ± 260 RFUs/min | < 0.1 µM | 95% | – | – | 100 µM | > 100 µM | 66 ± 1% | 1200 ± 700 RFUs/min | –13 ± 0.3% | –940 ± 700 RFUs/min | greater impact than vanoxerine | –
CCCCCCCCCC(=O)OC(CCN1CCN(CCOC(c2ccc(F)cc2)c2ccc(F)cc2)CC1)c1ccccc1 (centres unmarked) [Compound 11] | – | – | –59 ± 0.1% | –5600 ± 160 RFUs/min | 39 ± 2% | 1000 ± 160 RFUs/min | – | – | – | – | > 100 µM | > 100 µM | 45 ± 1% | 400 ± 300 RFUs/min | –28 ± 25% | –1900 ± 400 RFUs/min | no impact on the electric potential | no effect on ethidium bromide efflux
c1ccc(CCCN2CCN(CCOC(c3ccccc3)c3ccccc3)CC2)cc1 [GBR12935, 1-[2-(Diphenylmethoxy)ethyl]-4-(3-phenylpropyl)piperazine, reference compound] | – | – | –37 ± 0.2% | –2000 ± 100 RFUs/min | 90 ± 3% | 1100 ± 40 RFUs/min | – | – | – | – | 100 µM | > 100 µM | 34 ± 2% | 160 ± 240 RFUs/min | –16 ± 0.1% | –1300 ± 150 RFUs/min | – | –
COc1ccc(CCN(C)CCCC(C#N)(c2ccc(OC)c(OC)c2)C(C)C)cc1OC (centres unmarked) [verapamil, reference compound] | – | – | – | – | 210 ± 7% | 2900 ± 140 RFUs/min | – | – | – | – | – | – | 52 ± 6% | 640 ± 1400 RFUs/min | – | – | – | –

— publication PMC11700842 (The Journal of Antibiotics, 2024)
